Assay results reported in PubChem BioAssay (NCI).
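A five-concentration, 48-hour dose response in 96-well plates underlies each endpoint, interpolated linearly between surrounding concentrations. Here, GI50 denotes the concentration required for 50% inhibition of growth. TGI is the concentration that stops growth completely.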

Legend:
Assay in all cases: growth of human tumour cells (NCI), 48 h
[1] = system: EKVX NSCLC
[2] = system: CAKI-1 renal
[3] = system: M14 melanoma
[4] = system: U251 CNS
[5] = system: IGROV1 ovarian
[6] = system: NCI-H460 lung
[7] = system: UACC-62 melanoma
[8] = system: OVCAR-3 ovarian
[9] = system: HOP-92 NSCLC

SMILES | TGI [1] | TGI [2] | TGI [3] | TGI [4] | TGI [5] | TGI [6] | TGI [7] | TGI [8] | TGI [9] | GI50 [2] | GI50 [3] | GI50 [4] | GI50 [5] | GI50 [6] | GI50 [7] | GI50 [8] | GI50 [9] | GI50 [1]
CCOc1ccc(/C=C2/C(=O)N=C(N)N=C2N)cc1OCC | > 100 µM | > 100 µM | > 100 µM | > 100 µM | > 100 µM | > 100 µM | > 100 µM | > 100 µM | > 100 µM | – | – | – | – | – | – | – | – | –
O=C(O)C1=C(C(=O)O)Oc2ccccc2O1 | > 100 µM | > 100 µM | > 100 µM | > 100 µM | > 100 µM | > 100 µM | > 100 µM | > 100 µM | > 100 µM | – | – | – | – | – | – | – | – | –
CC1(C)CC(O)CC(C)(C)N1.CC1(C)CC(O)CC(C)(C)N1.CC1(C)CC(O)CC(C)(C)N1.CC1(C)CC(O)CC(C)(C)N1.Cl.[Ti] | – | > 100 µM | > 100 µM | > 100 µM | > 100 µM | > 100 µM | > 100 µM | > 100 µM | > 100 µM | > 100 µM | > 100 µM | > 100 µM | > 100 µM | > 100 µM | > 100 µM | > 100 µM | > 100 µM | –
O=S(=O)(Cc1ccccc1)SCc1ccccc1 | > 100 µM | > 86.2 µM | 27.6 µM | 66.2 µM | > 84.7 µM | > 83.8 µM | 55.8 µM | 58.5 µM | 51.2 µM | – | – | – | – | – | – | – | – | –
Nc1c(-c2nc3ccccc3s2)[n+]([O-])c2ccccc2[n+]1[O-] | > 100 µM | 81.8 µM | 74.2 µM | > 100 µM | > 100 µM | > 100 µM | > 100 µM | 60.6 µM | 62.3 µM | – | – | – | – | – | – | – | – | –
Nc1nc(-c2ccccc2)cc(-c2cc(Cl)ccc2O)n1 | > 100 µM | > 100 µM | > 100 µM | > 100 µM | > 100 µM | > 100 µM | > 100 µM | 94.4 µM | > 100 µM | – | – | – | – | – | – | – | – | –
NNC(=O)N/N=C1\CNC(=O)C(=O)C1c1nc2ccccc2s1 (stereo not drawn) | > 100 µM | > 100 µM | > 100 µM | > 100 µM | > 100 µM | > 100 µM | > 100 µM | > 100 µM | > 100 µM | – | – | – | – | – | – | – | – | –
CC1(C)OC2OC(COC(=O)C(c3ccccc3)c3ccccc3)C3OC(C)(C)OC3C2O1 (stereo not drawn) | > 100 µM | > 100 µM | > 100 µM | – | > 100 µM | > 100 µM | > 100 µM | – | > 100 µM | > 100 µM | – | – | > 100 µM | – | – | – | – | > 100 µM
CC(=O)c1c(O)c2c([nH]c1=O)CCCC2 | > 100 µM | > 100 µM | > 100 µM | 60.9 µM | > 100 µM | 30.5 µM | 43.3 µM | > 100 µM | > 100 µM | – | – | – | – | – | – | – | – | –
c1ccc2c(c1)[O][Sn][O]2 | > 150 µg/mL | > 150 µg/mL | > 150 µg/mL | > 150 µg/mL | > 150 µg/mL | > 150 µg/mL | > 150 µg/mL | > 150 µg/mL | > 150 µg/mL | 30.2 µg/mL | 57.3 µg/mL | > 150 µg/mL | 24.3 µg/mL | 46 µg/mL | 35.5 µg/mL | 10.9 µg/mL | 64.8 µg/mL | > 150 µg/mL
CCN(CC)CCCNc1c2ccc(Cl)cc2nc2ccc(OC)cc12 | – | – | – | – | – | 1.34 µM | 3.55 µM | – | 3.62 µM | – | – | – | – | 0.0326 µM | 1.84 µM | – | 1.41 µM | –
C1CCN2CC3CONC3C2C1 (stereo not drawn) | > 100 µM | > 100 µM | > 100 µM | > 100 µM | > 100 µM | > 100 µM | > 100 µM | > 100 µM | – | – | – | – | – | – | – | – | – | –
CC(C)(C)c1cc(C(OCCl)(C(F)(F)F)C(F)(F)F)c2c(c1)C(C(F)(F)F)(C(F)(F)F)OC21c2ccccc2C(=O)c2ccccc21 | > 100 µM | > 100 µM | > 100 µM | > 100 µM | – | > 100 µM | – | > 100 µM | – | – | – | – | – | – | – | – | – | –
CC(=O)OC1COC(Oc2c(C)c3c4c(c2O)[C@@H](C)CC[C@@H]4[C@@H](C)C[C@H]3C=C(C)C)C(O)C1O (stereo partly drawn) | – | 30.9 µM | 28.6 µM | 41.6 µM | > 100 µM | 52.2 µM | 39.4 µM | 31.3 µM | 36.3 µM | 16 µM | 13 µM | 19.5 µM | 20.1 µM | 16.2 µM | 18.8 µM | 16.1 µM | 18.7 µM | –
O=C(Nc1ccc(Cl)c(Cl)c1)C1C(=O)N(c2ccc(Cl)c(Cl)c2)C(=O)/C1=N\O (stereo not drawn) | > 100 µM | > 100 µM | 53.8 µM | > 100 µM | > 100 µM | – | > 100 µM | > 100 µM | > 100 µM | – | – | – | – | – | – | – | – | –
NC(=O)C(=O)Cc1nc2ccccc2s1 | > 100 µM | – | > 100 µM | > 100 µM | – | > 100 µM | – | > 100 µM | > 100 µM | – | – | – | – | – | – | – | – | –
O=c1[nH]c(=O)n(C2CC(O)C(O)C(CO)O2)cc1F (stereo not drawn) | > 100 µM | – | > 100 µM | > 100 µM | > 100 µM | > 100 µM | > 100 µM | > 100 µM | > 100 µM | – | – | – | – | – | – | – | – | –
Nc1c(C(=O)Nc2ccccc2O)[n+]([O-])c2ccccc2[n+]1[O-] | > 100 µM | > 100 µM | > 100 µM | > 100 µM | > 100 µM | > 100 µM | – | > 100 µM | > 100 µM | – | – | – | – | – | – | – | – | –
